# Test results: paper PMC11681865, “Oligomerization of protein arginine methyltransferase 1 and its functional impact on substrate arginine methylation” (The Journal of Biological Chemistry, 2024)
# “Also recorded” adds a separate entry of the source.
# Legend:
# PRMT1 [1] = biological target: T1, PRMT1 (Homo sapiens, UniProt Q99873); assay: Stopped-flow fluorescence dissociation of H4FL from PRMT1; format: binding; details: for koff: 1:25 dilution, pH 8.0, ex 498 / em 524, at least three shots averaged, single exponential
# T1 construct: human PRMT1 protein (amino acid residue 11–353); His6; made in house
# Description: We next utilized the stopped-flow technique to measure the dissociation rates of peptide substrate from PRMT1 at different PRMT1 concentrations. We used a rapid dilution experiment with stopped flow fluorescence to measure the dissociation rate of H4 peptide from PRMT1. […] We reasoned that the changes of fluorescence intensity can be used to measure dissociation rate of H4 substrate. In the experiment, the H4FL was premixed with PRMT1 and loaded into the sample chamber of the stopped flow equipment. The mixture was rapidly mixed with an access buffer which initiated the dissociation of H4FL from PRMT1 on the millisecond scale. […] The averaged data curves were fitted to the single exponential equation to yield dissociation rate constant koff. The koff was 42.27 s^−1 at 0.5 μM of PRMT1, the koff was 22.29 s^−1at 1.5 μM of PRMT1, and the koff was 17.65 s^−1 at 5 μM of PRMT1 (Fig. 9D).
# Figure 9 Oligomerization helps PRMT1 retain its substrate. The experiment was carried out by the SX20 stopped-flow spectrometers with (A) 0.5 μM, (B) 1.5 μM, and (C) 5 μM of PRMT1. The PRMT1 was premixed with 0.8 μM H4FL peptide. The mixture was diluted with the reaction buffer for a 1:25 dilution when the reaction was run. D, data summary of koff. TEXT PRINTED IN THE PICTURE: (D) no label printed: koff: 42.27 s^-1 (Concentration of PRMT1: 0.5 μM); koff: 22.29 s^-1 (Concentration of PRMT1: 1.5 μM); koff: 17.65 s^-1 (Concentration of PRMT1: 5 μM)
# The trapping experiment to measure the dissociation rate of PRMT1 was carried out using the SX20 stopped-flow spectrometers (Applied Photophysics). The setting for excitation was 498 and emission was 524. A constant concentration of 0.8 μM of H4FL peptide (Peptide Sequence: Ac-[…]pr(FL)[…], in which FL stands for fluorescein) was pre-mix with 0.5 μM, 1.5 μM, and 5.0 μM of PRMT1. The mixture was loaded on the 100 μl drive syringe. Another 2.5 ml drive syringe was loaded with reaction buffer (50 mM Hepes pH 8.0, 10 mM NaCl, 0.5 mM EDTA, and 0.5 mM DTT) to create the 1:25 dilution factor. At least three shots were averaged for each reaction and fitted to the single exponential function. F is the fluorescence intensity, t is time, A is the amplitude of fluorescence, k is the dissociation rate constant, and C is the final value of fluorescence.(2) F=Aexp(−kt)+C
# [2] = biological target: Human PRMT1 (11-353), His-MBP tag removed (human)
# PRMT1-WT [3] = biological target: T2, PRMT1-WT (Homo sapiens, UniProt Q99873); assay: Steady-state kinetics, radiometric filter-binding assay, PRMT1-WT; format: biochemical
# T2 construct: His-MBP (N, cleaved yes); made in house; host or cells: Escherichia coli BL21 (DE3) RIPL
# Description: To gain further insights into the effect of oligomerization on the PRMT1 activity, we measured the steady-state kinetic parameters of different peptide substrates under PRMT1 catalysis using the radiometric assay. […] A constant concentration of PRMT1-WT was mixed with various concentrations of peptide and a constant concentration of radioactive SAM. After quenching the reaction, the reaction mixture was loaded onto the P81 filter paper that was washed, air-dried, and soaked in scintillation cocktail for scintillation counting. The rates of methylation as a function of the peptide concentration were plotted in Figure 8A and fit with the Hill equation to obtain catalytic parameters kcat and K0.5 (Fig. 8B).
# Figure 8 Steady state kinetic characterization of PRMT1 catalysis in oligomeric states. Radioactive kinetic parameters were measured using filter-binding assay. […] The reaction time was 15 min at 30 °C and quenched with 100% isopropanol. For the reaction with PRMT1-E153Q, 0.05 μM PRMT1-E153Q was incubated on ice with PRMT1 for 20 min equilibration before adding SAM and peptide. A, kinetic parameters of oligomeric states in graphical form. B, representation of the kinetic parameters in kcat, K0.5, and kcat/K0.5.
# Each reaction sample was consisted of 0.05 μM PRMT1, 15 μM ^14C-SAM, and various concentrations of peptide. […]
# PRMT1 [4] = biological target: T1, PRMT1; assay: Dynamic light scattering of PRMT1 oligomers; format: physicochemical; details: pH 8, 25 °C; for disruption of PRMT1 oligomers by denaturant: 6 M guanidine hydrochloride or 5 M guanidine thiocyanate
# Description: Dynamic light scattering (DLS) uses a laser to measure the particle size distribution ([26]). The DLS can give information regarding the heterogeneity of protein in a sample ([27]). In the past, DLS was used to study microbial and viral structure ([28]). Nowadays, DLS is a popular method for studying nanoparticles, liposomes, and exosomes ([29], [30], [31], [32]). Researchers have also used DLS to study the protein folding of bovine serum albumin ([33]). Therefore, we envisage that the DLS can be utilized to analyze the size changes of PRMT1 oligomeric compositions in an aqueous solution. We expect to see an increase in size with increasing protein concentrations. The prepared PRMT1 protein at varied concentrations was allowed to incubate in the aqueous buffer for equilibrium on ice for 10 min. The protein solution was filtered with 0.2-micron filter to remove any big interfering particles. The protein size was analyzed using a Malvern Zetasizer instrument. We took an average of three runs with about 25 scans each time to evaluate the data. […] Guanidine hydrochloride is a popular protein denaturant ([34]). […] As a negative control, we incubated PRMT1 in the presence of 6 M guanidine hydrochloride to disrupt oligomer formation. […] A literature reported that guanidine thiocyanate is a stronger denaturant than guanidine hydrochloride ([35]).
# Figure 2 Oligomerization of PRMT1 detection by dynamic light scattering. Various concentrations of PRMT1 were incubated on ice for 10 min, then filtered by 0.2-micron syringe filter and collected data from the DLS. The top line with black circle indicates PRMT1 without denaturant. The open triangle and hexagon lines indicated PRMT1 oligomeric structure disrupted by 6 M guanidine hydrochloride and 5 M guanidine thiocyanate, respectively.
# Indicated concentrations of PRMT1 were incubated for 10 min on ice with buffer (50 mM Hepes pH 8, 10 mM NaCl, 0.5 mM EDTA, 0.5 mM DTT) and filtered through the 0.22 μm syringe filter. For the experiment to disrupt the oligomer formation, 6 M of guanidine hydrochloride or 5 M of guanidine thiocyanate was added to the reaction. The samples were injected into the 1 ml disposable cuvette and measured by Zetasizer Nano ZS (Malvern Instruments) at 25 °C. Three measurements of 25 scans each were collected to average. The data was analyzed by the Malvern Zetasizer software v7.10.
# PRMT1-WT [5] = biological target: T2, PRMT1-WT; assay: Radiometric P81 filter-binding assay, PRMT1-WT concentration dependence; format: biochemical; details: 50 μM peptide, 2 μM [3H]-SAM and 48 μM SAM, 30 min, room temperature, pH 8.0
# Description: We used the phosphocellulose P81 filter paper–binding assay to measure the catalytic activity of PRMT1 at different concentrations on individual peptides. Each reaction mixture was composed of PRMT1-WT at varied concentrations, at fixed concentrations of SAM and peptide. The reaction mixture was quenched with isopropanol, transferred to the P81 filter paper, and washed with sodium bicarbonate buffer (pH 9). […] The measured count-per-minute (CPM) values correlated directly with the amounts of methylated peptide products. In a typical enzymatic catalysis, the product should be formed linearly as a function of enzyme concentration.
# Various concentrations of PRMT1-WT were incubated with radioactive 2 μM [3H]-SAM and 48 μM SAM and 50 μM of indicated peptides for 30 min. The reaction was quenched with 100% isopropanol.
# The reaction buffer consisted of 50 mM Hepes pH 8.0, 10 mM NaCl, 0.5 mM EDTA, and 0.5 mM DTT. The reaction was incubated at room temperature for 30 min after being initiated with ^3H-SAM SAM. An equal amount of 100% isopropanol to the total reaction volume was used to quench the reaction. The reaction liquid was transferred onto the phosphocellulose P81 filter paper (1.1 cm × 2 cm, Protein Chemistry & Metabolism Unit at St Vincent's Institute of Medical Research). The P81 filter papers containing the samples were left at room temperature for 30 min to airdry. […]
# T2 sequence (Q99873 11-353 isoform Q99873-3): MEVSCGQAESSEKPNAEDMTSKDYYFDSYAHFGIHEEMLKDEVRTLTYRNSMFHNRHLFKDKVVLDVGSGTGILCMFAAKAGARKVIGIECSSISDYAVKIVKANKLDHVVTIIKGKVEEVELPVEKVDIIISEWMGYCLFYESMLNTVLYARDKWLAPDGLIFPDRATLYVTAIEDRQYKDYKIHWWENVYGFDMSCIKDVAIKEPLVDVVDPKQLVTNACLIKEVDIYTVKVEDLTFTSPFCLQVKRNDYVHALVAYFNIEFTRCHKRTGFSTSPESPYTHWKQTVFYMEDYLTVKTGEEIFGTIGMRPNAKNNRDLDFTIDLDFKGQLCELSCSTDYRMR
# T1 sequence (Q99873 11-353 isoform Q99873-3): as above
molecule,measurement,setting,value
"Ac-SGRGKGGKGDpr(FL)GKGGAKRHRK [H4FL, fluorescently labeled H4 peptide]",koff,"PRMT1 [1]; 0.5 μM PRMT1, 0.8 μM H4FL",42.27 s⁻¹
same,koff,"PRMT1 [1]; 1.5 μM PRMT1, 0.8 μM H4FL",22.29 s⁻¹
same,koff,"PRMT1 [1]; 5 μM PRMT1, 0.8 μM H4FL",17.65 s⁻¹
same,koff vs PRMT1 concentration / oligomeric state,"PRMT1 [1]; 0.5, 1.5 and 5 μM PRMT1",the koff decreased as PRMT1 concentration increased; also recorded: smaller at higher oligomeric states
"PRMT1-E153Q, catalytically inactive mutant (enzyme)","dimethylated R4me2 (MALDI-MS, percent relative to R4 peptide), 0.5 μM PRMT1-WT with 0 to 2 μM PRMT1-E153Q",[2],5.85%
same,"monomethylated product R4me1 (MALDI-MS, percent relative to R4 peptide), 0.5 μM PRMT1-WT with 0 to 2 μM PRMT1-E153Q",[2],20.2%
Ac-SGRGKGGKGLGKGGAK [Ac-H4(1–16)],K0.5 / binding comparison of Ac-H4(1–16) and longer H4 peptide,PRMT1-WT [3],greater than Ac-H4(1–22); also recorded: weaker PRMT1 binding
same,"kcat, fold lower than Ac-H4(1–22)",PRMT1-WT [3]; Ac-H4(1–16) vs Ac-H4(1–22),1.3 fold
Cl.N=C(N)N [guanidine hydrochloride],disruption of PRMT1 oligomers by denaturant,PRMT1 [4],substantially smaller than those values without guanidine hydrochloride
same,highest Z-average of PRMT1 in presence of denaturant,"PRMT1 [4]; 6 M guanidine hydrochloride, average of three runs of 25 scans",8.43 nm
N#CS.N=C(N)N [guanidine thiocyanate],Z-average of PRMT1 in presence of denaturant,"PRMT1 [4]; 5 M guanidine thiocyanate, average of three runs of 25 scans",1.27 nm
same,disruption of PRMT1 oligomers by denaturant,PRMT1 [4],better at denaturing PRMT1 oligomers than guanine hydrochloride
Ac-SGRmeGKGGKGLGKGGAKRHRK [Ac-H4(1–20)R3me],PRMT1 enzymatic activity (CPM) vs PRMT1 concentration,PRMT1-WT [5],increase as higher-order oligomeric structures were formed
